# Measured values published in US20240000872A1, “NOVEL BACTERIOPHAGE THAT LYSES ACINETOBACTER GENUS BACTERIA HAVING RESISTANCE TO ANTIBIOTICS” (priority 2020, published 2024).
# Test system: Acinetobacter baumannii strains
# Experiment: Antibiotic susceptibility test (CLSI disk diffusion test method, read per CLSI 2016)
# Type: cell-based
# Method: (§1) Strain identification was performed using a kit such as AT 32 GN system (bioMérieux, Marcy l'Etoile, France). […] In Table 2 below, S, I, and R are the results obtained by evaluating susceptibility to the antibacterial agents, in which ‘S’ means susceptible, ‘I’ means intermediate, and ‘R’ means resistant.
# as §1, with “as ATB” for “as AT”, “system (bioMédrieux,” for “system (bioMérieux,”, “Table 6” for “Table 2”
# as §1, with “as ATB” for “as AT”, “Table 10” for “Table 2”, “susceptible, T” for “susceptible, ‘I’”
compound,measurement,setting,value
"NCC[C@H](O)C(=O)N[C@@H]1C[C@H](N)[C@@H](O[C@H]2O[C@H](CN)[C@@H](O)[C@H](O)[C@H]2O)[C@H](O)[C@H]1O[C@H]1O[C@H](CO)[C@@H](O)[C@H](N)[C@H]1O [Amikacin, amikacin]",antibiotic susceptibility class,host strain YMC14/01/C29,R
same,antibiotic susceptibility class,host strain YMC14/01/IP122,R
same,antibiotic susceptibility class,host strain YMC14/01/L8,R
same,antibiotic susceptibility class,host strain YMC14/01/P31,R
same,antibiotic susceptibility class,host strain YMC14/01/P117,R
same,antibiotic susceptibility class,host strain YMC14/01/P224,R
same,antibiotic susceptibility class,host strain YMC14/01/P727,R
same,antibiotic susceptibility class,host strain YMC14/01/P728,R
same,antibiotic susceptibility class,host strain YMC14/01/R130,R
same,antibiotic susceptibility class,host strain YMC14/01/R160,R
same,antibiotic susceptibility class,host strain YMC14/01/R198,R
same,antibiotic susceptibility class,host strain YMC14/01/R257,S
same,antibiotic susceptibility class,host strain YMC14/01/R270,R
same,antibiotic susceptibility class,host strain YMC14/01/R324,R
same,antibiotic susceptibility class,host strain YMC14/01/R443,R
same,antibiotic susceptibility class,host strain YMC14/01/R451,R
same,antibiotic susceptibility class,host strain YMC14/01/R560,R
same,antibiotic susceptibility class,host strain YMC14/01/R617,R
same,antibiotic susceptibility class,host strain YMC14/01/R671,R
same,antibiotic susceptibility class,host strain YMC14/01/R732,R
same,antibiotic susceptibility class,host strain YMC14/01/R767,R
same,antibiotic susceptibility class,host strain YMC14/01/R904,R
same,antibiotic susceptibility class,host strain YMC14/01/R905,R
same,antibiotic susceptibility class,host strain YMC14/01/R921,S
same,antibiotic susceptibility class,host strain YMC14/01/R941,R
same,antibiotic susceptibility class,host strain YMC14/01/R958,R
same,antibiotic susceptibility class,host strain YMC14/01/R1006,R
same,antibiotic susceptibility class,host strain YMC14/01/R1199,R
same,antibiotic susceptibility class,host strain YMC14/01/R1659,R
same,antibiotic susceptibility class,host strain YMC14/01/R1722,R
same,antibiotic susceptibility class,host strain YMC14/01/R1752,R
same,antibiotic susceptibility class,host strain YMC14/01/R2429,R
same,antibiotic susceptibility class,host strain YMC14/01/R2572,R
same,antibiotic susceptibility class,host strain YMC14/01/R2855,R
same,antibiotic susceptibility class,host strain YMC14/01/R2945,R
same,antibiotic susceptibility class,host strain YMC14/01/R3007,R
same,antibiotic susceptibility class,host strain YMC14/01/R3129,R
same,antibiotic susceptibility class,host strain YMC14/01/R3317,R
same,antibiotic susceptibility class,host strain YMC14/01/R3474,R
same,antibiotic susceptibility class,host strain YMC14/01/R3574,R
same,antibiotic susceptibility class,host strain YMC14/01/U313,R
same,antibiotic susceptibility class,host strain YMC14/01/U318,R
same,antibiotic susceptibility class,host strain YMC14/02/L18,R
same,antibiotic susceptibility class,host strain YMC14/02/P47,R
same,antibiotic susceptibility class,host strain YMC14/02/R1860,S
same,antibiotic susceptibility class,host strain YMC14/02/R2417,R
same,antibiotic susceptibility class,host strain YMC14/02/R2599,S
same,antibiotic susceptibility class,host strain YMC14/02/R2668,R
same,antibiotic susceptibility class,host strain YMC14/02/R2758,R
same,antibiotic susceptibility class,host strain YMC14/02/R2781,R
same,antibiotic susceptibility class,host strain YMC14/02/R3106,R
same,antibiotic susceptibility class,host strain YMC14/02/R3419,R
same,antibiotic susceptibility class,host strain YMC14/02/U1607,S
same,antibiotic susceptibility class,host strain YMC14/03/L9,S
same,antibiotic susceptibility class,host strain YMC14/03/P471,S
same,antibiotic susceptibility class,host strain YMC14/03/R122,S
same,antibiotic susceptibility class,host strain YMC14/03/R217,R
same,antibiotic susceptibility class,host strain YMC14/03/R380,R
same,antibiotic susceptibility class,host strain YMC14/03/R618,S
same,antibiotic susceptibility class,host strain YMC14/03/R2144,R
same,antibiotic susceptibility class,host strain YMC14/03/U4616,R
same,antibiotic susceptibility class,host strain YMC14/04/R1078,S
same,antibiotic susceptibility class,host strain YMC14/04/R1080,S
same,antibiotic susceptibility S/I/R,host strain YMC14/06/R2359,R
same,susceptibility category (S/I/R),host strain YMC14/06/R2359,R
same,antibiotic susceptibility S/I/R,host strain YMC14/08/R1169,R
same,susceptibility category (S/I/R),host strain YMC14/08/R1169,R
same,antibiotic susceptibility S/I/R,host strain YMC14/08/T90,R
same,susceptibility category (S/I/R),host strain YMC14/08/T90,R
same,antibiotic susceptibility S/I/R,host strain YMC15/02/R436,R
same,susceptibility category (S/I/R),host strain YMC15/02/R436,R
same,antibiotic susceptibility S/I/R,host strain YMC15/02/T28,R
same,susceptibility category (S/I/R),host strain YMC15/02/T28,R
same,antibiotic susceptibility S/I/R,host strain YMC15/03/R1604,R
same,susceptibility category (S/I/R),host strain YMC15/03/R1604,R
same,antibiotic susceptibility S/I/R,host strain YMC15/09/R1869,R
same,susceptibility category (S/I/R),host strain YMC15/09/R1869,R
same,antibiotic susceptibility S/I/R,host strain YMC16/01/P11,R
same,susceptibility category (S/I/R),host strain YMC16/01/P11,R
same,antibiotic susceptibility S/I/R,host strain YMC16/01/R123,R
same,susceptibility category (S/I/R),host strain YMC16/01/R123,R
same,antibiotic susceptibility S/I/R,host strain YMC16/01/R198,R
same,susceptibility category (S/I/R),host strain YMC16/01/R198,R
same,antibiotic susceptibility S/I/R,host strain YMC16/01/R353,R
same,susceptibility category (S/I/R),host strain YMC16/01/R353,R
same,antibiotic susceptibility S/I/R,host strain YMC16/01/R397,R
same,susceptibility category (S/I/R),host strain YMC16/01/R397,R
same,antibiotic susceptibility S/I/R,host strain YMC16/01/R405,R
same,susceptibility category (S/I/R),host strain YMC16/01/R405,R
same,antibiotic susceptibility S/I/R,host strain YMC16/03/R4461,R
same,susceptibility category (S/I/R),host strain YMC16/03/R4461,R
same,antibiotic susceptibility S/I/R,host strain YMC16/07/R2512,R
same,susceptibility category (S/I/R),host strain YMC16/07/R2512,R
same,antibiotic susceptibility S/I/R,host strain YMC16/09/R2471,R
same,susceptibility category (S/I/R),host strain YMC16/09/R2471,R
same,antibiotic susceptibility S/I/R,host strain YMC16/10/R2537,R
same,susceptibility category (S/I/R),host strain YMC16/10/R2537,R
same,antibiotic susceptibility S/I/R,host strain YMC16/12/B11422,R
same,susceptibility category (S/I/R),host strain YMC16/12/B11422,R
same,antibiotic susceptibility S/I/R,host strain YMC16/12/B11449,R
same,susceptibility category (S/I/R),host strain YMC16/12/B11449,R
same,antibiotic susceptibility S/I/R,host strain YMC16/12/B13325,R
same,susceptibility category (S/I/R),host strain YMC16/12/B13325,R
same,antibiotic susceptibility S/I/R,host strain YMC16/12/P503,R
same,susceptibility category (S/I/R),host strain YMC16/12/P503,R
same,antibiotic susceptibility S/I/R,host strain YMC16/12/R4637,R
same,susceptibility category (S/I/R),host strain YMC16/12/R4637,R
same,antibiotic susceptibility S/I/R,host strain YMC17/01/B8053,R
same,susceptibility category (S/I/R),host strain YMC17/01/B8053,R
same,antibiotic susceptibility S/I/R,host strain YMC17/01/B10087,R
same,susceptibility category (S/I/R),host strain YMC17/01/B10087,R
same,antibiotic susceptibility S/I/R,host strain YMC17/01/B12075,S
same,susceptibility category (S/I/R),host strain YMC17/01/B12075,S
same,antibiotic susceptibility S/I/R,host strain YMC17/01/B13454,R
same,susceptibility category (S/I/R),host strain YMC17/01/B13454,R
same,antibiotic susceptibility S/I/R,host strain YMC17/01/P518,R
same,susceptibility category (S/I/R),host strain YMC17/01/P518,R
same,antibiotic susceptibility S/I/R,host strain YMC17/01/R2812,R
same,susceptibility category (S/I/R),host strain YMC17/01/R2812,R
same,antibiotic susceptibility S/I/R,host strain YMC17/02/B14,R
same,susceptibility category (S/I/R),host strain YMC17/02/B14,R
same,antibiotic susceptibility S/I/R,host strain YMC17/02/B87,S
same,susceptibility category (S/I/R),host strain YMC17/02/B87,S
same,antibiotic susceptibility S/I/R,host strain YMC17/02/B721,R
same,susceptibility category (S/I/R),host strain YMC17/02/B721,R
same,antibiotic susceptibility S/I/R,host strain YMC17/02/B4039,R
same,susceptibility category (S/I/R),host strain YMC17/02/B4039,R
same,antibiotic susceptibility S/I/R,host strain YMC17/02/B4520,R
same,susceptibility category (S/I/R),host strain YMC17/02/B4520,R
same,antibiotic susceptibility S/I/R,host strain YMC17/02/B4864,S
same,susceptibility category (S/I/R),host strain YMC17/02/B4864,S
same,antibiotic susceptibility S/I/R,host strain YMC17/02/B8414,R
same,susceptibility category (S/I/R),host strain YMC17/02/B8414,R
same,antibiotic susceptibility S/I/R,host strain YMC17/02/P523,S
same,susceptibility category (S/I/R),host strain YMC17/02/P523,S
same,antibiotic susceptibility S/I/R,host strain YMC17/02/R541,R
same,susceptibility category (S/I/R),host strain YMC17/02/R541,R
same,antibiotic susceptibility S/I/R,host strain YMC17/02/R2392,R
same,susceptibility category (S/I/R),host strain YMC17/02/R2392,R
same,antibiotic susceptibility S/I/R,host strain YMC17/03/B4730,R
same,susceptibility category (S/I/R),host strain YMC17/03/B4730,R
same,antibiotic susceptibility S/I/R,host strain YMC17/03/B5000,R
same,susceptibility category (S/I/R),host strain YMC17/03/B5000,R
same,antibiotic susceptibility S/I/R,host strain YMC17/03/P971,R
same,susceptibility category (S/I/R),host strain YMC17/03/P971,R
same,antibiotic susceptibility S/I/R,host strain YMC17/03/R348,R
same,susceptibility category (S/I/R),host strain YMC17/03/R348,R
same,antibiotic susceptibility S/I/R,host strain YMC17/03/R585,R
same,susceptibility category (S/I/R),host strain YMC17/03/R585,R
same,antibiotic susceptibility S/I/R,host strain YMC17/03/R1888,R
same,susceptibility category (S/I/R),host strain YMC17/03/R1888,R
same,antibiotic susceptibility S/I/R,host strain YMC17/03/R3279,R
same,susceptibility category (S/I/R),host strain YMC17/03/R3279,R
same,antibiotic susceptibility S/I/R,host strain YMC17/03/R4077,R
same,susceptibility category (S/I/R),host strain YMC17/03/R4077,R
same,antibiotic susceptibility S/I/R,host strain YMC17/03/R4607,R
same,susceptibility category (S/I/R),host strain YMC17/03/R4607,R
same,antibiotic susceptibility S/I/R,host strain YMC17/04/R488,R
same,susceptibility category (S/I/R),host strain YMC17/04/R488,R
same,antibiotic susceptibility S/I/R,host strain YMC17/04/R640,R
same,susceptibility category (S/I/R),host strain YMC17/04/R640,R
same,antibiotic susceptibility S/I/R,host strain YMC/17/05/R1095,R
same,susceptibility category (S/I/R),host strain YMC/17/05/R1095,R
